Results taken from ChEMBL document CHEMBL1208782, “Synthesis and pharmacological validation of a novel series of non-steroidal FXR agonists” (Bioorg Med Chem Lett, 2010).
pEC50: −log10 of the molar value.

Legend:
Assay type in all cases: functional, cell-based
[1] = target: T1, Oxysterols receptor LXR-alpha (Homo sapiens, UniProt Q13133); assay: Agonist activity at LXRalpha-LBD expressed in HEK293 cells assessed as Gal4-DBD interaction by cellular mammalian one hybrid assay
T1 sequence (Q13133 whole entry): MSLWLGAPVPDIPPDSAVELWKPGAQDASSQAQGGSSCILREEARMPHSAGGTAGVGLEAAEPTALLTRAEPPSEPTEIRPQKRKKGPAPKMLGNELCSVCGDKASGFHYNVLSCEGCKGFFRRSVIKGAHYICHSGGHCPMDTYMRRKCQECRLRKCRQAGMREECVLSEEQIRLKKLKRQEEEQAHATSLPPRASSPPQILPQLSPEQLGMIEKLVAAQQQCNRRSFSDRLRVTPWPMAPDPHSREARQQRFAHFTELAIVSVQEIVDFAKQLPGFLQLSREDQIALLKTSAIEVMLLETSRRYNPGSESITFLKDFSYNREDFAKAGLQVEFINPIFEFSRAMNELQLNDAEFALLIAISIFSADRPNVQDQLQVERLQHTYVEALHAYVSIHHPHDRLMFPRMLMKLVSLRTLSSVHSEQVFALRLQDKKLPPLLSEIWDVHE

[2] = target: T2, Retinoic acid receptor alpha (Homo sapiens, UniProt P10276); assay: Agonist activity at RARalpha-LBD expressed in HEK293 cells assessed as Gal4-DBD interaction by cellular mammalian one hybrid assay
T2 sequence (P10276 whole entry): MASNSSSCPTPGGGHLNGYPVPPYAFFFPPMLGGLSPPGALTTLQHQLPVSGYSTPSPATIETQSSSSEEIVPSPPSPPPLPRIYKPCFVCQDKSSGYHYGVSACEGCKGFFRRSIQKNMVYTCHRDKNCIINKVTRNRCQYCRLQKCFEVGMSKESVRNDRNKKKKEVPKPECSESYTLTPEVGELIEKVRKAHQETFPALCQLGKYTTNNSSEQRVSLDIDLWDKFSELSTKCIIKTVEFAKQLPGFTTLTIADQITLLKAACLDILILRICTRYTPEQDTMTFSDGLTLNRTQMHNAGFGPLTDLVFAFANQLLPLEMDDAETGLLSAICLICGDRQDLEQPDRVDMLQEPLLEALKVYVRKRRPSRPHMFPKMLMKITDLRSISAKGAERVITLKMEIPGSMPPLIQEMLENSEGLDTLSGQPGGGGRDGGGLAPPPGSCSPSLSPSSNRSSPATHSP

[3] = target: T3, Retinoic acid receptor gamma (Homo sapiens, UniProt P13631); assay: Agonist activity at RARgamma-LBD expressed in HEK293 cells assessed as Gal4-DBD interaction by cellular mammalian one hybrid assay
T3 sequence (P13631 whole entry): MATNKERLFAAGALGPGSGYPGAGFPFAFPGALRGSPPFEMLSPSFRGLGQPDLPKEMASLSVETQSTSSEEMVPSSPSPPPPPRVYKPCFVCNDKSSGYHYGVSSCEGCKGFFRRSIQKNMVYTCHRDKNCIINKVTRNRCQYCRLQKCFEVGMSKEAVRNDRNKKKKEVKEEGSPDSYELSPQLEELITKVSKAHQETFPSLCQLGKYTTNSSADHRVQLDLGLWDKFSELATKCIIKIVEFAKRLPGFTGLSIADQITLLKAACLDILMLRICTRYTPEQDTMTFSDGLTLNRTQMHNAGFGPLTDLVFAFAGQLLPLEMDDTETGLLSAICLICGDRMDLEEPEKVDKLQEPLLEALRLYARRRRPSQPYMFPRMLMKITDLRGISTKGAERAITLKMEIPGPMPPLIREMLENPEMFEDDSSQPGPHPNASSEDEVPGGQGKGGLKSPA

[4] = target: T4, Bile acid receptor (Homo sapiens) (UniProt Q96RI1); assay: Agonist activity at human […] FXR LBD expressed in HEK293 cells coexpressing GAL4-DNA bindig domain and pFRluc by mammalian one-hybrid assay relative to GW-4064
T4 sequence (whole entry): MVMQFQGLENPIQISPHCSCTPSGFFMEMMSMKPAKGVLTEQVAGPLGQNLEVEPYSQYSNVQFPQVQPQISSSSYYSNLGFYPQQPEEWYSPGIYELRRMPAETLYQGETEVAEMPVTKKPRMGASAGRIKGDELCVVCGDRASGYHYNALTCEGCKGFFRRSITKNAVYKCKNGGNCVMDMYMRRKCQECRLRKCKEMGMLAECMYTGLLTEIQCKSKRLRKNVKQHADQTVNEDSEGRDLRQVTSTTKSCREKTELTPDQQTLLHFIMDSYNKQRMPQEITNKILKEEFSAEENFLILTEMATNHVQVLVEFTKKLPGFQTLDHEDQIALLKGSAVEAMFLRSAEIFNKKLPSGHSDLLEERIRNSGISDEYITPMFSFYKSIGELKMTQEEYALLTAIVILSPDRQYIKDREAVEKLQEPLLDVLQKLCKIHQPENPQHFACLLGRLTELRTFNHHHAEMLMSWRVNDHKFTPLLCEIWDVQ

[5] = target: T5, Mineralocorticoid receptor (Homo sapiens, UniProt P08235); assay: Agonist activity at mineralocorticoid receptor-LBD expressed in HEK293 cells assessed as Gal4-DBD interaction by cellular mammalian one hybrid assay
T5 sequence (P08235 whole entry): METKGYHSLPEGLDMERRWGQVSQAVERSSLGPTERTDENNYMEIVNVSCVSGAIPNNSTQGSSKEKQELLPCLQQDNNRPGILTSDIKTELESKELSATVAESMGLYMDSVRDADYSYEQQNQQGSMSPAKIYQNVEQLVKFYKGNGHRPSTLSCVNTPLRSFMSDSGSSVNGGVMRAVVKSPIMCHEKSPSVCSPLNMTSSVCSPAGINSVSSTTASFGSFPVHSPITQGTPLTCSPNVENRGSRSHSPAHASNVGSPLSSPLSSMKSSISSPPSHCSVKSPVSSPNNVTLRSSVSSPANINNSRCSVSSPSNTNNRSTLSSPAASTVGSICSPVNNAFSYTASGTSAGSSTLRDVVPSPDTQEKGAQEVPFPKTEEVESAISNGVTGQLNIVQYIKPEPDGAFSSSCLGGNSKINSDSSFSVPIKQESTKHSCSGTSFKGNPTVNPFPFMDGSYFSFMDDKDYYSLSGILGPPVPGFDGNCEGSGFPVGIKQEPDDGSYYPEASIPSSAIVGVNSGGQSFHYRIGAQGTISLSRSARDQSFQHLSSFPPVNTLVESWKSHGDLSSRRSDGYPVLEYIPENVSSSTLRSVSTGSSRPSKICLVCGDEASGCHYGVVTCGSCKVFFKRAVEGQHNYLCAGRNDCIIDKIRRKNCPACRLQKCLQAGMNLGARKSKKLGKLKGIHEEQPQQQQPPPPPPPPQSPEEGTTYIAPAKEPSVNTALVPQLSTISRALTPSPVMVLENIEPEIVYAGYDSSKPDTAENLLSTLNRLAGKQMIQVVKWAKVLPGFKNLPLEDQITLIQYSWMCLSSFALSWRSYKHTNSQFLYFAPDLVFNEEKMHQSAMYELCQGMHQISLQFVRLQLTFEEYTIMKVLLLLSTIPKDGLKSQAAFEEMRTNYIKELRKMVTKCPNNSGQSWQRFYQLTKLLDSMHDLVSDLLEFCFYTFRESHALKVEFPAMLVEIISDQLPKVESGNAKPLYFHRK

| pEC50 [1] | pEC50 [2] | pEC50 [3] | Efficacy [4] [%] | pEC50 [5] | SMILES |
| --- | --- | --- | --- | --- | --- |
| < 5.00 | < 5.00 | < 5.00 | 81 | < 5.00 | CN(Cc1ccc(C(=O)O)cc1)c1ccc(OCc2c(-c3c(Cl)cccc3Cl)noc2C2CC2)nc1C(F)(F)F |
| < 5.00 | < 5.00 | < 5.00 | 75 | < 5.00 | CC(C)c1onc(-c2c(Cl)cccc2Cl)c1COc1ccc(N(C)Cc2ccc(C(=O)O)cc2)c(C(F)(F)F)n1 |
| < 5.00 | < 5.00 | < 5.00 | 79 | < 5.00 | CN(Cc1cccc(C(=O)O)c1)c1ccc(OCc2c(-c3c(Cl)cccc3Cl)noc2C2CC2)nc1C(F)(F)F |
